{"source": "patent US9540418B2", "about": "“Polypeptide specifically binding to rare earth nanoparticles and use thereof” (University of Science and Technology of China, priority 2012, dated 2017)", "key": {"[1]": {"assay": "Competitive inhibition of REOB-1 phage binding to Nd2O3 by polypeptides (IC50)", "conditions": "100 μg Nd2O3, REOB-1 phages at a titer of 108, 2 hr incubation; read-out: IC50 (μM)* of polypeptides competitively inhibiting the binding of REOB-1 phages to Nd2O3 nanoparticles", "protocol": "100 μg Nd2O3 was mixed with the polypeptides, RE-1, AP-1, RE-2, RE-3, RE-4, RE-5, RE-6, RE-7, RE-8, RE-9, RE-10, etc., respectively. To the mixture, REOB-1 phages at a titer of 108 were added. After 2 hr of incubation, the number of REOB-1 phages binding to Nd2O3 was measured. IC50 value indicated the relative activity of various polypeptides competitively inhibiting the binding of REOB-1 phages to Nd2O3 nanoparticles. The polypeptide RE-1 and its analogues had different binding ability to Nd2O3."}, "[2]": {"test_system": "HeLa-LC3 cells", "assay": "RE-1 blocking of nanophosphor-induced autophagy (LC3 aggregates and vacuoles)", "assay_type": "cell-based", "conditions": "nanophosphors coated with RE-1, 24 hr", "protocol": "The rare-earth upconversion nanophosphors (UCN, UCP, UCN-S) coated with RE-1 were prepared as follows: 50 μg, 10 μg, and 350 μg RE-1 was mixed with 100 μg UCN, UCP, or UCN-S, respectively, incubated at 37° C. for 2 hr, centrifuged at 12000 rpm, and then washed with water for 3 times to remove the excess and unbound RE-1 peptides. The resultant precipitate was resuspended in 100 μL water.\nHeLa-LC3 cells were inoculated into a 96-well cell culturing plate at a density of about 1-2×10^4 cells/well, and cultured overnight for further use. At first, the medium was replaced with fresh DMEM medium, to which UCN, UCP, or UCN-S with or without the coating of RE-1 peptides was added at different concentrations (0 μg/mL, 10 μg/mL, 100 μg/mL, 1000 μg/mL). After culturing for 24 hr, the fluorescence generated by GFP reporter gene was observed, imaged, and measured under a fluorescence microscope.\nThe ability to induce cell autophagy was estimated by determining the numbers of LC3 aggregates and vacuoles."}, "[3]": {"assay": "Binding of FITC-RE-1 to UCN (time, concentration, pH, salt, temperature)", "conditions": "50 μg FITC-RE-1, 100 μg UCN", "protocol": "50 μg of FITC-RE-1 was incubated with 100 μg of UCN for different time periods (2 min, 10 min, 30 min, 120 min, and 720 min). Then, the amount of FITC-RE-1 fluorescent peptide binding to UCN was measured by using fluorescence spectrophotometer.\n100 μg of UCN was incubated with FITC-RE-1 at various concentrations (5 μg, 10 μg, 25 μg, 50 μg, and 100 μg) for 1 hr. The excess and unbound peptides were washed off. The amount of FITC-RE-1 fluorescent peptide binding to UCN was measured by using fluorescence spectrophotometer.\n(§1) 50 μg of FITC-RE-1 was incubated with 100 μg of UCN dissolved at different pH values (pH 3, 5, 7, and 10) for 1 hr. The excess and unbound peptides were washed off. The amount of FITC-RE-1 fluorescent peptide binding to UCN was measured by using fluorescence spectrophotometer.\nas §1, with “salt ion concentrations (0 M, 0.15 M, 0.3 M,” for “pH values (pH 3, 5, 7,”, “0.5 M NaCl)” for “10)”\n50 μg of FITC-RE-1 was incubated with 100 μg of UCN dissolved in water at different temperatures (25° C., 37° C., 55° C., and 80° C.) for 1 hr. […] The amount of FITC-RE-1 fluorescent peptide binding to UCN was measured by using fluorescence spectrophotometer."}, "[4]": {"assay": "Inhibition of the binding of REOB-1 to Nd2O3 by RE-1 short peptide at various concentrations", "protocol": "RE-1 short peptides at various concentrations (0 μg/mL, 1 μg/mL, 10 μg/mL, 50 μg/mL, 100 μg/mL, and 500 μg/mL) were incubated with 100 μL Nd2O3 (1 mg/mL) comprising REOB-1 phages at a titer of 10^8 at 37° C. for 2 hr. The resulting precipitate was washed 10 times. The phages binding to Nd2O3 were recovered. 5000 μg/mL of AP-1 short peptide was treated according to the same procedure as described above, as a control."}, "[5]": {"test_system": "LC3 II in HeLa cells", "assay": "Western blotting of LC3 in HeLa cells", "assay_type": "cell-based", "protocol": "Western blotting is performed as follows: After an incubation of 24 h, the cells are collected and lysed with lysis buffer (purchased from Beyotime Biotechnology, China). The lysate is boiled in boiling water for 10 min, subjected to 15% SDS-PAGE, and then transferred to nylon membrane (purchased from Amersham Inc.) by a wet transfer. In the Western blotting, Anti-LC3 (Light Chain 3 Protein Antibody, purchased from Novus Inc., Catalog #: NB 100-2220) is used as primary antibody; GAPDH (purchased from Millipore Inc.) is used as internal reference; and Horseradish peroxidase (HRP) conjugated goat anti-rabbit IgG (H+L) (Goat Anti-Rabbit IgG (H+L), HRP Conjugate) (purchased from Promega Inc.) is used as secondary antibody.\nHeLa cells were inoculated into a 24-well cell culturing plate at a density of about 3-5×10^4 cells/well, and cultured overnight for further use. At first, the medium was replaced with fresh DMEM medium, and then 100 μg/mL UCN or UCN+RE-1 was added. An equal volume of PBS was used as blank. A mixture of 100 μg/mL UCN and 10 mg/mL PEG was used as negative control. 100 mM trehalose was used as positive control. Then, western blotting assay was performed.\nHeLa cells were inoculated into a 24-well cell culturing plate at a density of about 3-5×10^4 cells/well, and cultured overnight for further use. At first, the medium was replaced with fresh DMEM medium, and then 100 μg/mL UCP or UCP+RE-1 was added. An equal volume of PBS was used as blank. A mixture of 100 μg/mL UCP+AP-1 and a mixture of 400 μg/mL TiO2+AP-1 were used as negative control. 400 μg/mL TiO2 was used as positive control. Then, western blotting assay was performed."}, "[6]": {"assay": "Dissociation of FITC-RE-1 from UCP over time", "assay_type": "binding", "conditions": "after 48 hr, 37° C., shaking", "protocol": "250 μg FITC-RE-1 was thoroughly mixed with 500 μg UCN. The excess and unbound polypeptides were washed off. Then, the mixture was divided into five aliquots. The aliquots were gently shaked on a shaking table at 37° C. The amount of FITC-RE-1 dissociated in the supernatants was measured by using a fluorescence spectrophotometer at different time points (0 hr, 2 hr, 12 hr, 24 hr, and 48 hr).\nThe process described above was repeated except that 50 μg FITC-RE-1 and 500 μg UCP were used. The amount of FITC-RE-1 dissociated in the supernatants was measured."}}, "data": [{"sequence": "ACTARSPWICG [RE-1, RE-0 with terminal amino acids A and G added]", "values": [{"measurement": "IC50", "setting": "[1]", "value": "3.01 ± 0.14", "unit": "µM"}, {"measurement": "inhibition of cell autophagy induced by UCN, UCP, and UCN-S", "setting": "[2]", "value": "significantly inhibited"}, {"measurement": "binding to UCN at 2 min", "setting": "[3]; 2 min", "value": 50, "unit": "%"}, {"measurement": "binding to UCN at 10 min", "setting": "[3]; 10 min", "value": "almost binding saturation"}, {"measurement": "dependence of inhibition of REOB-1 binding to Nd2O3 on RE-1 concentration", "setting": "[4]; 0-500 μg/mL RE-1", "value": "concentration-dependent"}, {"measurement": "inhibition of the binding of REOB-1 to Nd2O3", "setting": "[4]; RE-1 concentration greater than 10 μg/mL, REOB-1 titer 10^8, 37° C., 2 hr", "value": "nearly completely inhibited"}, {"measurement": "effect of RE-1 coating of UCN and UCP on LC3 II", "setting": "[5]; 100 μg/mL UCN+RE-1 or UCP+RE-1", "value": "significantly prevented the increase of LC3 II"}, {"measurement": "inhibition of cell autophagy induced by TiO2", "setting": "[5]; 400 μg/mL TiO2", "value": "could not inhibit"}, {"measurement": "dissociation from UCP", "setting": "[6]", "value": "less than 1.5%"}]}]}
